Entries after “also recorded” stand apart in the source; their conditions may differ.
Columns and labels:
[1] = test system: NCI-H716 cells; assay: GLP-1 synthesis and secretion in NCI-H716 cells; format: cell-based, human; conditions: for GLP-1 secretion by CA7S extracted from cecal contents of SG mice: 500 μM; for GLP-1 secretion by CA7S extracted from cecal contents of SG mice / total GLP-1 (GLP-1 synthesis): vs DMSO control; for GLP-1 secretion: in vitro; for total GLP-1 (GLP-1 synthesis): media + cell lysates
Experimental: GLP-1 synthesis and secretion were measured in matrigel-polarized NCI-H716 cells. […] (FIG. 28B)
Treatment with compounds. […] The cells were allowed to grow for 2 days in complete RPMI media. […] The concentration of DMSO was kept constant throughout the treatments and used as a negative control. Cells were incubated at 37° C. in an atmosphere of 5% CO2 for 2 hours. After the incubation period, cell culture media was collected in Eppendorf tubes containing 1% trifluoroacetic acid (TFA, Sigma) in sterile purified water (GenClone) to make a final TFA concentration of 0.1% and frozen at −80° C. for further GLP-1 measurements. Cells on cell culture plates were placed on ice and gently washed with PBS (GenClone). Cells used for GLP-1 measurements were treated with ice-cold cell lysis solution of 1% TFA, 1N hydrochloric acid, 5% formic acid, and 1% NaCl (all from Sigma), scraped off of the Matrigel coating, and collected in 96-well plates for peptide purification. Lysates were stored at −80° C. for further analysis.
GLP-1 measurement. Total GLP-1 peptide measurements were performed using the GLP-1 EIA Kit (Sigma, Cat. No. RAB0201) according to manufacturer's instructions. Cell culture media and cell lysates were subjected to peptide purification using Sep Pak C18 Classic columns (Waters Corporation, Milford, Mass.). The column was pretreated with a solution of 0.1% TFA in 80% isopropyl alcohol (EMD Millipore) and equilibrated with 0.1% TFA in water. Cell culture media and cell lysates were loaded onto the column and washed with […]. The peptides were eluted in […]. The eluate was concentrated by drying under vacuum and resuspended in 0.1% TFA in water. 0.1% TFA in water was used as ‘blank’ for cell culture media and purified cell lysate ELISAs. Excess samples were stored at −80° C. for later analyses. Total GLP-1 amounts in the cell culture media (secreted) and cell lysates were calculated using a standard curve provided in the EIA kit.

[2] = Stability after incubation in buffer at physiological pHs (UPLC-MS); format: physicochemical; conditions: 37° C. in buffer at physiological pHs
[3] = test system: Caco-2 cells; assay: Caco-2 cell viability assay (CellTiter-Glo, ATP luminescence); format: cell-based; conditions: concentrations up to 3 mM
Experimental: Compounds were also tested for toxicity using Caco-2 cells, a human intestinal epithelial cancer cell line. Caco-2 cells were incubated with compounds for 16 hours and cell death was determined using a luminescence assay measuring ATP levels as a readout for cell viability.
Cell viability assay. Caco-2 cells were treated with compounds diluted in DMSO in complete MEM media. The concentration of DMSO was kept constant and used as a negative control. Cells were incubated with compounds overnight at 37° C. in an atmosphere of 5% CO2. The next day, cell viability was measured using CellTiter-Glo Luminescent Cell Viability Assay from Promega Corporation according to manufacturer's instructions. Luminescence was measured using the SpectraMax M5 plate reader (Molecular Devices, San Jose, Calif.) at the ICCB-Longwood Screening Facility at Harvard Medical School. Luminescence was normalized to DMSO control and percentage relative luminescence was calculated compared to DMSO control.

[4] = biological target: T1, human TGR5 (Homo sapiens, UniProt Q8TDU6); assay: Luciferase reporter assay for human TGR5 activation in HEK293T cells overexpressing human TGR5; format: cell-based; conditions: for TGR5 activation: HEK293T cells overexpressing human TGR5, luminescence readout; for EC50: HEK293T cells overexpressing human TGR5
T1 construct: expressed in transfected cells; host or cells: HEK293T
T1 sequence (Q8TDU6 1-330): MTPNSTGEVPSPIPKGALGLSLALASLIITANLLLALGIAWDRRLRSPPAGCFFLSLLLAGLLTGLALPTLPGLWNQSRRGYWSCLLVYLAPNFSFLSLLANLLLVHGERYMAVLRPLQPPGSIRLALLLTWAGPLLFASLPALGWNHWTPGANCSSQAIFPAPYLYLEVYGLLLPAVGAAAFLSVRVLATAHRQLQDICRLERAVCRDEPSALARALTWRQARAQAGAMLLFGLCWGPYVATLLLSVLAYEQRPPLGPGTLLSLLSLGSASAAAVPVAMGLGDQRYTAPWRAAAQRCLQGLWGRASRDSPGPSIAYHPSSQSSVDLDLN
Experimental: Human TGR5 was overexpressed in HEK93T cells along with a luciferase-based TGR5 reporter plasmid. Cells were then incubated with different concentrations of compounds overnight, and TGR5 activation was measured as a luminescence readout.
Plasmids and transient transfections. Human TGR5 was cloned using cDNA from human Caco-2 cells as template and a forward primer with an EcoRIrestriction-site (5′-[…]-3′) and a reverse primer with a XhoI-site (5′-[…]-3′). The PCR product was cloned into the pCDNA 3.1+plasmid (Promega Corporation, Madison, Wis.) and transfected at a concentration of 0.4 μg/ml of media. For luciferase reporter assays for TGR5 activation, the pGL4.29[luc2P/CRE/Hygro] plasmid (Promega Corporation), and the pGL4.74[hRluc/CMV] plasmid (Promega Corporation) were used at concentration of 2 μg/ml and 0.05 μg/ml of media respectively. All plasmids were transfected using Opti-MEM (Gibco) and Lipofectamine 2000 (Invitrogen, Life Technologies, Grand Island, N.Y., USA) according to manufacturer's instructions. Plasmid transfection were performed in antibiotic-free media (MEM for HEK293T and RPMI for Matrigel-attached NCI-H716 cells) with 10% FBS. After overnight incubation, compounds were added in complete media and incubated overnight. Cells were harvested the next day for luciferase assay.
Luciferase reporter assay. Luminescence was measured using the Dual-Luciferase Reporter Assay System (Promega Corporation) according to manufacturer's instructions. Cells were washed gently with PBS and lysed in PLB from the kit. Matrigel-attached cells were scraped in PLB. Luminescence was measured using the SpectraMax M5 plate reader (Molecular Devices, San Jose, Calif.) at the ICCB-Longwood Screening Facility at Harvard Medical School. Luminescence was normalized to Renilla luciferase activity and percentage relative luminescence was calculated compared to DMSO control.

[5] = test system: NCI-H716 cells; assay: Intracellular calcium levels in NCI-H716 cells (L-cells); format: cell-based, human; conditions: NCI-H716 cells (L-cells) in vitro
[6] = test system: DIO mice; assay: Acute treatment of DIO mice via duodenal and rectal catheters: GLP-1 and blood glucose; format: in vivo, mouse; conditions: HFD-fed (DIO) mice, 1 mg, vs PBS; for systemic GLP-1 levels in vivo: within 15 minutes
Experimental: Next, the ability of CA7S to stimulate GLP-1 secretion and improve hyperglycemia in vivo was evaluated. DIO mice were treated with either CA7S or PBS via duodenal and rectal catheters (FIG. 17A).

[7] = listed as cholic acid 7-sulfate
[8] = listed as Cholic acid 7-sulfate
[9] = HFD-fed mice, acute cholic acid 7-sulfate treatment

## C[C@H](CCC(=O)O)[C@H]1CC[C@H]2[C@@H]3[C@H](OS(=O)(=O)O)C[C@@H]4C[C@H](O)CC[C@]4(C)[C@H]3C[C@H](O)[C@]12C [CA7S, cholic acid 7-sulfate]
[1]
  GLP-1 secretion by CA7S extracted from cecal contents of SG mice: also induced GLP-1 secretion in vitro
  GLP-1 secretion after siRNA-mediated knockdown of TGR5: abolished
  GLP-1 secretion: induced GLP-1 secretion to a similar degree as TDCA in a dose-dependent manner
[1]; [7]
  GLP-1 secretion by CA7S extracted from cecal contents of SG mice: exhibit activity inducing GLP-1 secretion
  GLP-1 secretion after siRNA-mediated knockdown of TGR5: abolished GLP-1 secretion
[1]; [8]
  GLP-1 secretion: induces GLP-1 secretion in vitro better than the known GLP-1 inducer TDCA
[2]
  pH stability: stable at physiological pHs
[2]; [8]
  pH stability: stable in a wide range of pHs
[9]
  Cholic acid 7-sulfate concentration (mean ± SEM), Cecum: 2577 ± 185.3 pmol/mg
  Cholic acid 7-sulfate concentration (mean ± SEM), Hepatic portal vein: 6.128 ± 2.111 pmol/mg
Administration of 1 mg, duodenal and rectal catheters
  CA7S in cecal contents, on average: 2500 pmol/mg wet mass
Dosing with 1 mg
  cholic acid 7-sulfate in the cecum: ~2500 µM
Ectopic introduction in mice, listed as cholic acid 7-sulfate
  amounts in systemic circulation and portal vein (gut restriction): only minor amounts
[3]
  viability of Caco-2 cells: does not affect the viability
[3]; [8]
  viability of Caco-2 cells: no toxicity
[4]
  TGR5 activation: activated human TGR5 in a dose-dependent manner
[4]; [8]
  TGR5 activation: induces TGR5 activation
[5]
  intracellular calcium levels: dose-dependent increase in calcium levels
[5]; [8]
  intracellular calcium levels: increased calcium levels
[6]; within 15 min
  blood glucose levels in vivo: reduced blood glucose levels
[6]
  systemic GLP-1 levels in vivo: increased systemic GLP-1 levels
[6]; [7]
  systemic GLP-1 levels in vivo: induced GLP-1 levels

## C[C@H](CCC(=O)O)[C@H]1CC[C@H]2[C@@H]3[C@H](O)C[C@@H]4C[C@H](O)CC[C@]4(C)[C@H]3C[C@H](O)[C@]12C [CA, cholic acid]
[1]
  GLP-1 secretion: had no effect on GLP-1 secretion
[1]; listed as cholic acid
  GLP-1 secretion: had no effect

## C[C@H](CCC(=O)O)[C@H]1CC[C@H]2[C@@H]3[C@H](NS(=O)(=O)O)C[C@@H]4C[C@H](O)CC[C@]4(C)[C@H]3C[C@H](O)[C@]12C [Compound 1]
[1]
  GLP-1 secretion: induce GLP-1 synthesis and secretion
  total GLP-1 (GLP-1 synthesis): increased total GLP-1; also recorded: induce GLP-1 synthesis and secretion
[4]
  EC50: 2.4 µM
  TGR5 activation: induced TGR5 activation in a dose-dependent manner; also recorded: activate TGR5

## C[C@H](CCC(=O)O)[C@H]1CC[C@H]2[C@@H]3[C@H](NS(=O)(=O)O)C[C@@H]4C[C@H](O)CC[C@]4(C)[C@H]3CC[C@]12C [Compound 2]
[1]
  GLP-1 secretion: induced GLP-1 secretion; also recorded: induce GLP-1 synthesis and secretion
  total GLP-1 (GLP-1 synthesis): increased total GLP-1; also recorded: induce GLP-1 synthesis and secretion
[4]
  EC50: 1.7 µM
  TGR5 activation: induced TGR5 activation in a dose-dependent manner; also recorded: activate TGR5

## C[C@H](CCC(=O)O)[C@H]1CC[C@H]2[C@@H]3[C@H](NS(=O)(=O)O)[C@H](O)[C@@H]4C[C@H](O)CC[C@]4(C)[C@H]3CC[C@]12C [Compound 3]
[1]
  GLP-1 secretion: induced GLP-1 secretion; also recorded: induce GLP-1 synthesis and secretion
  total GLP-1 (GLP-1 synthesis): increased total GLP-1; also recorded: induce GLP-1 synthesis and secretion
[4]
  TGR5 activation: induced TGR5 activation in a dose-dependent manner; also recorded: activate TGR5

## C[C@H](CCC(=O)O)[C@H]1CCC2[C@H]3C(CC[C@@]21C)[C@@]1(C)CC[C@@H](O)C[C@H]1C[C@H]3S(=O)(=O)O (stereo partly drawn) [Compound 6, (4R)-4-((3R,5S,7R,8R,10S,13R,17R)-3-hydroxy-10,13-dimethyl-7-sulfohexadecahydro-1H-cyclopenta[a]phenanthren-17-yl)pentanoic acid]
[1]
  GLP-1 secretion: induced an increase in GLP-1 synthesis and secretion
  total GLP-1 (GLP-1 synthesis): increased total GLP-1; also recorded: induced an increase in GLP-1 synthesis and secretion
[4]
  TGR5 activation: induced TGR5 activation in a dose-dependent manner; also recorded: activated TGR5

## C[C@H](CCC(=O)NCCS(=O)(=O)O)[C@H]1CC[C@H]2[C@@H]3CC[C@@H]4C[C@H](O)CC[C@]4(C)[C@H]3C[C@H](O)[C@]12C [TDCA, tauro-deoxycholic acid]
[1]
  GLP-1 secretion after siRNA-mediated knockdown of TGR5: abolished

Source: patent US12419897B2 (President and Fellows of Harvard College, priority 2018, dated 2025)
